US20100035823A1, “LIGANDS OF SH3 DOMAINS” (ALBERT EINSTEIN COLLEGE OF MEDICINE OF YESHIVA UNIVERSITY, priority 2005, published 2010)
Read-outs that look alike come from different tables or passages of the source. Where a SMILES comes first, the peptide text is derived from it. [ ]: non-standard residue; d: D form. The star is where a group is joined. FITC = O=C1OC2(c3ccc(O)cc3Oc3cc(O)ccc32)c2ccc(NC(=S)*)cc21; Benzoyl(2,3-diOH) = O=C(c1cccc(O)c1O)*; Nicotinoyl(2-OH) = O=C(c1cccnc1O)*; Nspe = C[C@H](NCC(=O)O)c1ccccc1; X1 = O=C([C@H](O)c1ccccc1)*; Dap = NC[C@H](N)C(=O)O; Ahx = NCCCCCC(=O)O

Legend:
Format in all cases: binding
[1] = molecular target: T1, Fyn SH3 domain (Fyn SH3-GST fusion protein) (Homo sapiens, UniProt P06241); assay: Determination of Kd values by equilibrium dialysis (fluorescence), Fyn SH3 domain; conditions: for Kd: Fyn SH3 domain; for Selectivity among Src family SH3 domains (in words): Fyn versus other Src kinase family SH3 domains; for Enhancement in Fyn SH3 affinity relative to parent peptide 9: ratio of KD values versus acetylated derivative 9
T1 construct: The GST-SH3 fusion proteins, Fyn (85-139) and Lck (54-120); purchased Santa Cruz Biotechnology
Method: Determination of Kd Values. […] Therefore, the KD values for the SH3 complexes of these species were determined via equilibrium dialysis. All samples were prepared in buffer containing TBS and 1 mM DTT at pH 7.5. Slide-A-Lyzer dialysis slide cassette (0.1-0.5 mL capacity) was employed and contained 30 nM or 500 nM Fyn SH3-GST fusion proteins. The cassettes (400 μL final volume) were placed in a beaker containing a volume of buffer solution (TBS and 1 mM DTT at pH 7.5) that was at least 400-fold greater than that of the sample volume in the dialysis cassette. As a consequence, concentrations of non-SH3-bound peptide were held constant in the dialysis slide cassette over the course of the experiment. Equilibrium dialysis experiments were performed over a period of at least 16 hr and maintained at 4°C. Differences in the fluorescence between the solution in the slide cassette and that in the beaker were measured. The excitation wavelength employed for the peptides were 328 nm. Emission was monitored at 378 nm. The Kd values were calculated from the following equation for fluorescent peptides 8a, 11a, 14 and 7, where [E]t=total enzyme concentration; [E·L]=enzyme-peptide complex; [L]=free peptide concentration.
For non-fluorescent peptide 9, the following equation was used for the determination of Kd′:
Where Kd=the dissociation constant of competition fluorescent peptide, [L′]=total lion-fluorescent peptide concentration, [L]=total competitive fluorescent peptide concentration, [E]t=total SH3 domain concentration; [E·L]=enzyme-peptide (fluorescent competitive peptide) complex concentration.

Yes SH3 domain = Yes SH3 domain (Homo sapiens, UniProt P07947); assay: Determination of Kd values by equilibrium dialysis (fluorescence), Yes SH3 domain; conditions: read-out: Dissociation constant (KD), Yes
Hck SH3 domain = molecular target: T2, Hck SH3 domain (Homo sapiens, UniProt P08631); assay: Determination of Kd values by equilibrium dialysis (fluorescence), Hck SH3 domain; conditions: read-out: Dissociation constant (KD), Hck
T2 construct: particularly with respect to the SH3 domains from Lck and Hck

Src SH3 domain = Src SH3 domain (Homo sapiens, UniProt P12931); assay: Determination of Kd values by equilibrium dialysis (fluorescence), Src SH3 domain; conditions: read-out: Dissociation constant (KD), Src
Lck SH3 domain = molecular target: T3, Lck SH3 domain (Homo sapiens, UniProt P06239); assay: Determination of Kd values by equilibrium dialysis (fluorescence), Lck SH3 domain; conditions: read-out: Dissociation constant (KD), Lck
T3 construct: The GST-SH3 fusion proteins, Fyn (85-139) and Lck (54-120); GST; purchased Santa Cruz Biotechnology

[2] = molecular target: T4, Fyn SH3-GST fusion protein (Homo sapiens, UniProt P06241); assay: Competition ELISA against microwell-bound biotinylated peptoid 6; conditions: competition with biotinylated peptoid 6, read-out: IC50 (relative affinity) in ELISA assay
T4 construct: The GST-SH3 fusion proteins, Fyn (85-139) and Lck (54-120); purchased Santa Cruz Biotechnology
Method: We employed Arg-Ala-Leu-Pro-Pro-Leu-Pro as the starting point for Fyn SH3 ligand optimization, a sequence that is consistent with most known SH3 domain-binding elements. We initially introduced diversity elements on the N-terminus of this peptide to furnish Library I (FIG. 2). The 720 individual members of this library were subsequently assessed for SH3 binding potency via an ELISA-based screen. The latter was performed in parallel using streptavidin-coated 96 well plates. A biotinylated-peptide SH3-directed ligand was appended to the individual wells and a GST-SH3 domain fusion protein was subsequently introduced. Competition between members of the library and the microwell-bound biotinylated peptide ligand determined the extent to which the GST-SH3 protein was retained by the individual wells after washing. The latter was quantified using an anti-GST-peroxidase fusion construct. The assay is dependent upon a strong binding interaction between the GST-SH3 domain and the biotinylated peptide ligand associated with the streptavidin-coated well. […]
Screening of the Peptide/Nonpeptide Conjugate Library. […] 100 μL of 1M sulfuric acid solution was introduced to stop the peroxidase reaction and absorbance was measured at 450 nm with a plate reader. […]

[3] = equilibrium dialysis, 4°C, pH 7.5, read-out: Dissociation constant (KD), Fyn

T1 sequence (P06241 85-139): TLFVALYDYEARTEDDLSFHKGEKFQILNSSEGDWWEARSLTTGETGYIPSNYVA
T2 sequence (P08631 78-138 limits assumed): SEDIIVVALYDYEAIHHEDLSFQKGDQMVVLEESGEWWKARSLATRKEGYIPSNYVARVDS
Chain of Yes SH3 domain (P07947 91-152 limits assumed): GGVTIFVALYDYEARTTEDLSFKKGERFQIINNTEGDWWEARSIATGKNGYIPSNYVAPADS
T3 sequence (P06239 54-120): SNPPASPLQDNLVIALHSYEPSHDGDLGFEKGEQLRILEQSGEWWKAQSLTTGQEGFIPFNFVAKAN
T4 sequence (P06241 85-139): as the sequence (P06241 85-139) above

| Kd ([1]; values in nM, read-out: KD for the Fyn SH3 domain) [nM] | Kd (Yes SH3 domain) [nM] | Kd [1, 3] [nM] | Selective affinity for Fyn versus SH3 domains from other Src kinase family members ([1]; Fyn versus Lck, Src, Yes, Hck SH3 domains) [fold] | Kd (Hck SH3 domain) [nM] | Kd (Src SH3 domain) [nM] | Kd (Lck SH3 domain) [nM] | Enhancement in Fyn SH3 affinity relative to parent peptide 9 [1] [fold] | IC50 [2] [nM] | SMILES | Selectivity among Src family SH3 domains (in words) [1] |
| --- | --- | --- | --- | --- | --- | --- | --- | --- | --- | --- |
| 230 ± 30 |  |  |  |  |  |  |  |  | CC(C)C[C@H](NC(=O)[C@@H]1CCCN1C(=O)[C@@H]1CCCN1C(=O)[C@H](C)NC(=O)[C@H](Cc1ccc(O)cc1)NC(=O)CCCCCNC(=O)CCCCCNC(=S)Nc1ccc2c(c1)C(=O)OC21c2ccc(O)cc2Oc2cc(O)ccc21)C(=O)N(CC(=O)N1CCC[C@H]1C(=O)N[C@@H](CCCNC(=N)N)C(=O)N[C@@H](CC(N)=O)C(=O)N[C@@H](CCCNC(=N)N)C(=O)N1CCC[C@H]1C(=O)N[C@@H](CCCNC(=N)N)C(=O)N[C@@H](C)C(N)=O)[C@@H](C)c1ccccc1 [Ligand 7] ({FITC-Ahx-Ahx}-YAPPL[Nspe]PRNRPRA-NH2) | little selectivity versus other members of the Src kinase family |
|  | 190 ± 20 | 25 ± 5 | 10 | 260 ± 30 | 230 ± 40 | 270 ± 30 |  |  | CC(C)C[C@H](NC(=O)[C@@H]1CCCN1C(=O)[C@@H]1CCCN1C(=O)[C@H](CC(C)C)NC(=O)[C@H](CNC(=O)[C@H](O)c1ccccc1)NC(=O)[C@H](CCCNC(=N)N)NC(=O)c1cccnc1O)C(=O)N1CCC[C@H]1C(=O)N[C@@H](CNC(=O)c1cccc(O)c1O)C(N)=O [Ligand 14] ({Nicotinoyl(2-OH)}-R[Dap](X1)LPPLP[Dap](Benzoyl(2,3-diOH))-NH2) |  |
|  | 2700 ± 300 | 1200 ± 200 |  | 5100 ± 700 | 2500 ± 200 | 5300 ± 400 | ~15 | 15000 | CC(C)C[C@H](NC(=O)[C@@H]1CCCN1C(=O)[C@@H]1CCCN1C(=O)[C@H](CC(C)C)NC(=O)[C@H](C)NC(=O)[C@H](CCCNC(=N)N)NC(=O)c1cccnc1O)C(=O)N1CCC[C@H]1C(N)=O [Ligand 8a] ({Nicotinoyl(2-OH)}-RALPPLP-NH2) | some selectivity in favor of Fyn |
|  | 380 ± 140 | 110 ± 30 |  | 620 ± 70 | 370 ± 50 | 590 ± 80 | > 100 |  | CC(C)C[C@H](NC(=O)[C@@H]1CCCN1C(=O)[C@@H]1CCCN1C(=O)[C@H](CC(C)C)NC(=O)[C@H](C)NC(=O)[C@H](CCCNC(=N)N)NC(=O)c1cccnc1O)C(=O)N1CCC[C@H]1C(=O)N[C@@H](CNC(=O)c1cccc(O)c1O)C(N)=O [Ligand 11a] ({Nicotinoyl(2-OH)}-RALPPLP[Dap](Benzoyl(2,3-diOH))-NH2) | slight improvement in selectivity for the Fyn SH3 domain relative to Lck and Hck |
